Reference: ChEMBL document CHEMBL4732222, “Discovery of novel Hsp90 C-terminal domain inhibitors that disrupt co-chaperone binding” (Bioorg Med Chem Lett, 2021)

How the values were obtained:
Homo sapiens = species: Homo sapiens; assay: Inhibition of recombinant biotin-labelled HSP90/GST-labelled PPID interaction (unknown origin) at 500 uM by Alphascreen assay relative to control
Heat shock protein HSP90 [1] = biological target: T1, Heat shock protein HSP90 (Homo sapiens, UniProt P07900+P08238); assay: Binding affinity to recombinant human N-terminal GST-tagged HSP90-CTD assessed as induction of fluorescence quenching at 1 mM by fluorescence spectroscopic analysis relative to control; assay type: protein assay
Heat shock protein HSP90 [2] = biological target: T1, Heat shock protein HSP90; assay: Binding affinity to recombinant human N-terminal GST-tagged HSP90-CTD by fluorescence spectroscopic analysis; assay type: protein assay
[3] = Binding affinity to GST (unknown origin) by fluorescence spectroscopic analysis; assay type: ADME, Homo sapiens
[4] = Inhibition of recombinant biotin-labelled HSP90/GST-labelled PPID interaction (unknown origin) by Alphascreen assay; design: species or system Homo sapiens

Question: For `COc1ccc2[nH]c3c(c2c1)CCNC3c1cccc(O)c1` (centres undefined), which inhibition (Homo sapiens) is on record?
Answer: > 60%

Question: For `COc1ccc(C(=O)Nc2ccccc2C(=O)N[C@H](C(=O)O)C(C)C)cc1`, which Activity (Heat shock protein HSP90 [1]) is on record?
Answer: > 30%

Question: Which Activity (Heat shock protein HSP90 [1]) does the source give for `COc1ccc(C(=O)Nc2ccccc2C(=O)NCCC(=O)O)cc1` here?
Answer: > 30%

Question: With `CCCCC(NC/C(=C(/C)O)c1cc2c(c(=O)o1)CCCC2)C(=O)O` (centres undefined) as the molecule, how does the inhibition (Homo sapiens) read?
Answer: > 60%

Question: Which Activity (Heat shock protein HSP90 [1]) does the source give for `CCOC(=O)c1cnc2ccc(OC)cc2c1Nc1ccccc1C(=O)O` here?
Answer: > 30%

Question: With `CC(C)CCn1c(NCCO)nc2c1c(=O)[nH]c(=O)n2C` as the molecule, how does the Activity (Heat shock protein HSP90 [1]) read?
Answer: > 30%

Question: Which inhibition (Homo sapiens) does the source give for `Cc1cc(O)c2c(=O)c(-c3csc(C)n3)coc2c1` here?
Answer: > 60%

Question: With `Cc1nc(CC(=O)c2ccc(O)c(O)c2O)cs1` as the molecule, how does the inhibition (Homo sapiens) read?
Answer: > 60%

Question: What about the Kd (Heat shock protein HSP90 [2]) of the same molecule?
Answer: 102 µM

Question: What about the Kd [3] of the same molecule?
Answer: 310 µM

Question: What about the Activity (Heat shock protein HSP90 [1]) of the same molecule?
Answer: > 30%

Question: And the IC50 [4]?
Answer: 35 µM

Question: For `NC(Cc1c[nH]c2ccc(OCc3ccccc3)cc12)C(=O)O` (centres undefined), which inhibition (Homo sapiens) is on record?
Answer: > 60%

Question: What about the Kd (Heat shock protein HSP90 [2]) of the same molecule?
Answer: 28 µM

Question: What about the Kd [3] of the same molecule?
Answer: 83 µM

Question: And the Activity (Heat shock protein HSP90 [1])?
Answer: > 30%

Question: What about the IC50 [4] of the same molecule?
Answer: 220 µM

Question: Which inhibition (Homo sapiens) does the source give for `O=C(O)C1Cc2c([nH]c3ccccc23)C(c2c(O)ccc3ccccc23)N1` (centres undefined) here?
Answer: > 60%

Question: Which inhibition (Homo sapiens) does the source give for `Cc1cc2oc(=O)cc(C)c2cc1NC(=O)CCCCl` here?
Answer: > 60%
